Here are results for one molecule from article PMC3481155, “AhR activation underlies the CYP1A autoinduction by A-998679 in rats” (Frontiers in Genetics, 2012).

The test system of data set [1] is CYP1A2. Description: CYP1A2 mRNA induction in primary human hepatocytes. The format is cell-based. The note with it: 24 h, dose-dependent. The method, then: Rat hepatocytes were isolated in a perfusion procedure as described previously (Elliget and Kolaja, [1983]; Waring et al., [2001]). The beagle dog hepatocytes were isolated in the same manner, except for adjustment of flow rate and buffer volume to scale to liver size. Cells were plated at a seeding density of 1.0 × 10^6 cells per well on 6-well, collagen-type I coated plates (BD Biosciences, Bedford, MA) in hepatocyte plating medium (Celsis, Baltimore, MD). Cells were allowed to attach for 24 h in a 37°C humidified incubator with a 5% CO2 atmosphere and were dosed for 24 h (rat) or 48 h (dog) with vehicle control [0.1% DMSO (v/v)] or 10 μM A-998679 in fresh treatment media (Celsis hepatocyte incubation media) every 24 h. After the last incubation, cells were lysed in 1 ml of Qiazol (Qiagen) and stored at −80°C until RNA isolation. Cryopreserved human hepatocytes (donor designation Hu4198; Invitrogen Life Technologies, Carlsbad, CA) were thawed and plated according to the manufacturer's protocol and allowed to incubate for 24 h. […]
RNA samples were diluted with RNase-free molecular biology grade water to a concentration of 20 ng/μl total RNA. […] Results were analyzed by calculating the fold change of CYP1A1 and/or CYP1A2 mRNA levels normalized to 28S rRNA (ΔΔ Ct) in compound treated cells or tissues compared to vehicle levels. […]

Data set [2] relates to Cyp1a2. Description: Cyp1a2 mRNA in rat liver after 5 days of dosing (microarray, RT-PCR). The format is in vivo. How it is done: All animal experiments were conducted in accordance with the Guiding Principles in the Use of Animals in Toxicology (http://www.toxicology.org/ai/air/air6.asp) and were approved by Abbott's Institutional Animal Care and Use Committee (IACUC). Male Sprague-Dawley rats [Crl:CD®(SD)IGS BR], weighing ~250 g at study initiation were obtained from Charles River Laboratories, Inc. (Wilmington, MA). Rats were housed singly in ventilated, stainless steel, wire-bottom hanging cages and fed non-certified Rodent Chow (Harlan Labs, Madison, WI), and water ad libitum and acclimated for at least 5 days after arrival. […] Serum clinical chemistry parameters were quantified using an Aeroset Clinical Chemistry Analyzer (Abbott Laboratories, Abbott Park, IL) and included alanine amino transferase (ALT), aspartate amino transferase (AST), gamma glutamyltransferase (GGT), and alkaline phosphatase (ALP) activities.
Frozen liver or jejunum were immediately added to 4 ml of TRIzol reagent (Invitrogen Life Technologies) and homogenized using a Polytron 300D homogenizer (Brinkman Instruments, Westbury, NY). […] Nucleic acid concentration was determined by OD 260 nm (Smart-Spec, Bio-Rad Laboratories, Hercules, CA), and RNA integrity was evaluated using an Agilent 2100 bioanalyzer (Agilent Technologies, Foster City, CA). […]

Regarding `N#Cc1cccc(-c2noc(-c3cccnc3)n2)c1` [A-998679, 3-(5-pyridin-3-yl-1,2,4-oxadiazol-3-yl) benzonitrile], the “lowest concentration inducing CYP1A2 mRNA” value in the data set with CYP1A2 [1] stood at 3 µM. In addition, in the data set with Cyp1a2 [2] (5 days of dosing, in at least one animal starting at the 100 mg/kg dose), the “Cyp1a2 mRNA increase in rat liver (microarray)” value is 2–3 fold. For the same molecule, in the data set with Cyp1a2 [2] (5 days, all doses (30, 100, 200 mg/kg/day)), the “Cyp1a2 mRNA expression in rat liver (RT-PCR)” value is recorded as “strongly induced”.
